Source: US20240159740A1, “METHOD FOR DIRECT ANALYSIS OF FUNCTIONAL AVIDITY OF T CELLS” (priority 2021, published 2024)
Where “and” joins values, the source holds several entries; their conditions need not be identical. Equal values may be shown once.

What was measured:
[1] = system: CD3 surface expression in CD40L+4-1BB+ CD4+ T cells; assay type: cell-based, human
[2] = system: CD40L+4-1BB+ CD4+ T cells; assay: Ex vivo T cell stimulation of PBMC, stimulation index of CD40L+4-1BB+ CD4+ T cells by flow cytometry; assay type: cell-based, human
[3] = system: serum IgG antibodies; settings: sera 1:100 from iCope T cell assay responders and non-responders
Procedure: After blocking (1 h, 30° C.) serum samples were diluted 1:100 and incubated for 1 h at 30° C. HRP-coupled, anti-human-IgG secondary antibody (Jackson Immunoresearch) was diluted 1:5000 (Jackson Immunoresearch) and added to the serum samples for 1 h at 30° C., then HRP substrate was added (TMB, Kem-En-Tec). The reaction was stopped by adding sulfuric acid and absorption was measured at 450 nm using a FlexStation 3.

[4] = system: expanded CD40L+4-1BB+ CD4+ short-term T cell lines; assay: Restimulation of expanded short-term T cell lines with autologous APC and peptides or peptide pools; assay type: cell-based, human; settings: T cell lines from 5 unexposed individuals

SFIEDLLFNKVTLAD [iCope] was tested, and the “donors in which reactive T cells increased in frequency and in functional avidity” value [1] was 10 of 17, the “donors responding with high functional avidity T cells” value ([1]; day 7 and day 14 after BNT162b2 primary vaccination, 31 donors) was 94% and the “proportion of individuals with iCope-recognizing CD4+ T cells” value ([2]; BNT162b2 vaccinated individuals) was 97%. For the same substance, the “proportion of individuals with iCope-reactive CD4+ T cells” value ([2]; SARS-CoV-2 / COVID-19 convalescents) was 50% and 50-60%, the “contribution of peptide-specific T cells to the CD40L+4-1BB+ cells in S-II stimulations” value ([2]; initially after BNT162b2 vaccination) was “up to 100%” and the “proportion of individuals with iCope-reactive CD4+ T cells” value ([2]; unexposed individuals) was 20%. The “strong responders (stim. index>3)” value ([2]; young, unexposed donors) was 44% and the “weak responders (stim. index>1.5)” value ([2]; young, unexposed donors) was 39%.
With “Biotin-Ttds-PSKPSKRSFIEDLLFNKV-OH [204_-1]” the “peptide binding IgG antibodies detected in serum” value [3] was “in all individuals”.
In the case of FIEDLLFNKVTLADA [compound 205], the “donors whose expanded SARS-CoV-2 S-II-cross-reactive T cells were stimulated by the peptide” value [4] is reported as “all 5 donors”.
With SKRSFIEDLLFNKVT [compound 204] the “donors whose expanded SARS-CoV-2 S-II-cross-reactive T cells were stimulated by the peptide” value [4] was “all 5 donors”.
